Several values for one entry are separate records, joined by “and”; a condition that tells them apart may be missing. Equal values may be shown once. Read-outs that look alike come from different tables or passages of the source.
Test system: DIO C57Bl6 mice
Conditions: for Weight Change from day 1: Day 32; for Average BW: IP-GTT day 24; for Blood Glucose 120 / Blood Glucose 15 min / Blood Glucose 30 min / Blood Glucose 60 min / Blood Glucose 90 min / Blood Glucose Fasting: IP-GTT day 24, ± SEM; for CHOLESTEROL / HDL CHOLESTEROL / HDL/LDL ratio / LDL / TRIGLYCERIDE: blood day 32, ± SEM; for Epid. Fat / Fat % BW / Ing. Fat / Liver / RP Fat / Total Fat / avg B.W.: day 32; for Blood glucose: day 32, fasted three hours
Description: C57Bl6 male mice (N=6) fifteen weeks old with an average of weight of 42 g were ad libitum fed TD.06414 a high fat diet composed of 60% Kcal from fat (Harlan diet). […] Animals were weighed every other day. Food consumption was measured weekly. […] Each animal was weighed and a baseline fasted glucose measurement collected. Each animal was given a 1 gram per kilogram dose of dextrose as a 25% solution by intraperitoneal injection.

## poly[HPMA-co-MA-GFLG-N-(trans-4-aminocyclohexyl)carbamoylfumagillol] [Compound 16]
0.2 mg/kg q4d sc
  Group BW ± SEM, Day 32: 46.5 ± 0.65 g
  Weekly food consumption Day 1-8: 25.8 g
  Weekly food consumption Day 9-15: 22.6 g
  Weekly food consumption Day 15-22: 20.3 g
  Weekly food consumption Day 22-29: 19.7 g
  Weight Change from day 1: +10.5%
  Average BW: 43.4 g
  Blood Glucose 120: 241 ± 16.8 mg/dL
  Blood Glucose 15 min: 505 ± 33.9 mg/dL
  Blood Glucose 30 min: 446 ± 20.5 mg/dL
  Blood Glucose 60 min: 456 ± 25.9 mg/dL
  Blood Glucose 90 min: 341 ± 15.5 mg/dL
  Blood Glucose Fasting: 254 ± 5.8 mg/dL
  CHOLESTEROL: 253 ± 8.4 mg/dL
  HDL CHOLESTEROL: 117 ± 2.7 mg/dL
  HDL/LDL ratio: 4.9 ± 0.2
  LDL: 24 ± 1.1 mg/dL
  TRIGLYCERIDE: 158 ± 10.9 mg/dL
  Epid. Fat: 2.01 g
  Fat % BW: 13.0%
  Ing. Fat: 2.54 g
  Liver: 2.06 g
  RP Fat: 1.48 g
  Total Fat: 6.02 g
  avg B.W.: 46.50 g
  Blood glucose: 290 mg/dL
0.6 mg/kg q4d sc
  Group BW ± SEM, Day 32: 43.3 ± 0.42 g
  Weekly food consumption Day 1-8: 19.5 g
  Weekly food consumption Day 9-15: 21.5 g
  Weekly food consumption Day 15-22: 20.2 g
  Weekly food consumption Day 22-29: 18.4 g
  Weight Change from day 1: +2.9%
  Average BW: 40.9 g
  Blood Glucose 120: 192 ± 12.9 mg/dL
  Blood Glucose 15 min: 442 ± 50.0 mg/dL
  Blood Glucose 30 min: 441 ± 35.54 mg/dL
  Blood Glucose 60 min: 388 ± 56.7 mg/dL
  Blood Glucose 90 min: 302 ± 43.3 mg/dL
  Blood Glucose Fasting: 206 ± 14.9 mg/dL
  CHOLESTEROL: 210 ± 3.7 mg/dL
  HDL CHOLESTEROL: 106 ± 1.2 mg/dL
  HDL/LDL ratio: 5.4 ± 0.1
  LDL: 20 ± 0.3 mg/dL
  TRIGLYCERIDE: 116 ± 3.1 mg/dL
  Epid. Fat: 2.24 g
  Fat % BW: 13.9%
  Ing. Fat: 2.51 g
  Liver: 1.75 g
  RP Fat: 1.26 g
  Total Fat: 6.01 g
  avg B.W.: 43.32 g
  Blood glucose: 265 mg/dL
2 mg/kg q4d, day 9-29
  weekly food consumption, % of vehicle: 90%
2 mg/kg q4d sc
  Weekly food consumption Day 1-8: 14.3 g
  Weekly food consumption Day 9-15: 22.2 g
  Weekly food consumption Day 15-22: 19.9 g
  Weekly food consumption Day 22-29: 18.5 g
  CHOLESTEROL: 149 ± 4.7 mg/dL
  HDL CHOLESTEROL: 92 ± 2.6 mg/dL
  HDL/LDL ratio: 9.0 ± 0.4
  LDL: 10 ± 0.5 mg/dL
  TRIGLYCERIDE: 95 ± 8.7 mg/dL
2.0 mg/kg q4d sc
  Group BW ± SEM, Day 32: 38.8 ± 0.70 g
  Weight Change from day 1: −7.4%
  Average BW: 36.8 g
  Blood Glucose 120: 166 ± 6.4 mg/dL
  Blood Glucose 15 min: 388 ± 20.7 mg/dL
  Blood Glucose 30 min: 361 ± 24.3 mg/dL
  Blood Glucose 60 min: 327 ± 26.7 mg/dL
  Blood Glucose 90 min: 244 ± 24.0 mg/dL
  Blood Glucose Fasting: 198 ± 11.6 mg/dL
  Epid. Fat: 1.72 g
  Fat % BW: 11% and 11.4%

— patent US11304944B2, “MetAP2 inhibitors and methods of treating obesity” (SynDevRx, Inc., priority 2013, dated 2022)
